Source: patent US6472348B1, “Pyridone derivatives and herbicides” (Kumiai Chemical Industry Co., Ltd., priority 1996, dated 2002)

Assays:
[1] = system: common lambsquarters (Ch); assay: Test Example 7: crop plant selectivity by upland field soil treatment (corn), herbicidal effects; format: in vivo; set-up: scale not given here; conditions: 21st day after application
Outline: (§1)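 Values are ratings of herbicidal effect and phytotoxicity on a standard scale, taken 21 days after application. Test species were sown together with corn in sand-filled pots, covered with soil, and grown in a greenhouse.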

slender amaranth (Am) [2] = assay: as above; format: in vivo; set-up: scale not given here; conditions: 21st day after application
Outline: as §1

monochoria (Mo) = assay: Test Example 1: herbicidal effects by paddy field soil treatment; format: in vivo; conditions: 100 g of the active ingredient per 10 ares, 21st day after the application, index 0-5 of Table 47;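 further: grade of growth control; 5 = at least 90%; 4 = 70 to 90%; 3 = 50 to 70%; 2 = 30 to 50%; 1 = 10 to 30%; 0 = under 10%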
Outline: (§2)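 Scoring of herbicidal effect came 21 days after application of 100 g active ingredient per 10 ares to flooded (3 cm) paddy-soil pots sown with barnyardgrass, monochoria and bulrush, kept in a greenhouse.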

bulrush (Sc) = assay: as above; format: in vivo; conditions: 100 g of the active ingredient per 10 ares, 21st day after the application, index 0-5 of Table 47;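 further: grade of growth control; 5 = at least 90%; 4 = 70 to 90%; 3 = 50 to 70%; 2 = 30 to 50%; 1 = 10 to 30%; 0 = under 10%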
Outline: as §2

barnyardgrass (Ec) = assay: as above; format: in vivo; conditions: 100 g of the active ingredient per 10 ares, 21st day after the application, index 0-5 of Table 47;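 further: grade of growth control; 5 = at least 90%; 4 = 70 to 90%; 3 = 50 to 70%; 2 = 30 to 50%; 1 = 10 to 30%; 0 = under 10%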
Outline: as §2

soybean (Gl) = assay: Test Example 6: crop plant selectivity by upland field soil treatment (soybean), phytotoxicity; format: in vivo; set-up: scale not given here; conditions: 21st day after application
Outline: (§3)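 Seeds are sown in sand and covered with soil. The soil is treated with test compound. Pots are kept in a greenhouse. Weed control and soybean damage are rated visually 21 days after application.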

pale smartweed (Po) = assay: Test Example 9: crop plant selectivity by upland field foliage treatment (wheat), herbicidal effects; format: in vivo; set-up: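 grade of growth control; 5 = at least 90%; 4 = 70 to 90%; 3 = 50 to 70%; 2 = 30 to 50%; 1 = 10 to 30%; 0 = under 10%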; conditions: dose 1.6 g ai/10a, 14th day after treatment
Outline: (§4)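 Wheat and weeds sown in sand-filled pots, grown 2 weeks in a greenhouse, then foliage-treated. Herbicidal effect and crop phytotoxicity were scored 14 days after treatment against a rating scale.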

[3] = system: common lambsquarters (Ch); assay: as above; format: in vivo; set-up: scale not given here; conditions: dose 1.6 g ai/10a, 14th day after treatment
Outline: as §4

China jute (Ab) [4] = assay: as above; format: in vivo; set-up: scale not given here; conditions: dose 1.6 g ai/10a, 14th day after treatment
Outline: as §4

slender amaranth (Am) [5] = assay: as above; format: in vivo; set-up: scale not given here; conditions: dose 1.6 g ai/10a, 14th day after treatment
Outline: as §4

corn (Ze) = assay: Test Example 11: crop plant selectivity by upland field foliage treatment (corn), phytotoxicity; conditions: upland field foliage treatment, dose 1.6 g ai/10a, 14th day after treatment
Outline: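 Corn with pale smartweed, slender amaranth, common lambsquarters and China jute sown in sand-filled pots and grown 2 weeks in a greenhouse before foliage treatment. Herbicidal effect and crop phytotoxicity scored on day 14 after treatment against a rating standard.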

[6] = system: common lambsquarters (Ch); assay: Test Example 6: crop plant selectivity by upland field soil treatment (soybean), herbicidal effects; format: in vivo; set-up: scale not given here; conditions: 21st day after application
Outline: as §3

China jute (Ab) [7] = assay: as above; format: in vivo; set-up: scale not given here; conditions: 21st day after application
Outline: as §3

SMILES | Herbicidal effects Ch ([1]; dose 6.3 g ai/10a) | Herbicidal effects Am (slender amaranth (Am) [2]; dose 6.3 g ai/10a) | Herbicidal effects Mo (monochoria (Mo)) | Herbicidal effects Sc (bulrush (Sc)) | Herbicidal effects Ec (barnyardgrass (Ec)) | Phytotoxicity Gl (soybean (Gl); dose 6.3 g ai/10a) | Herbicidal effects Po (pale smartweed (Po)) | Herbicidal effects Ch [3] | Herbicidal effects Ab (China jute (Ab) [4]) | Herbicidal effects Am (slender amaranth (Am) [5]) | Phytotoxicity Ze (corn (Ze)) | Herbicidal effects Ch ([6]; dose 6.3 g ai/10a) | Herbicidal effects Ab (China jute (Ab) [7]; dose 6.3 g ai/10a) | Herbicidal effects Ch ([1]; dose 1.6 g ai/10a) | Herbicidal effects Am (slender amaranth (Am) [2]; dose 1.6 g ai/10a) | Phytotoxicity Gl (soybean (Gl); dose 1.6 g ai/10a) | Herbicidal effects Ch ([6]; dose 1.6 g ai/10a) | Herbicidal effects Ab (China jute (Ab) [7]; dose 1.6 g ai/10a)
C=CC(C)Oc1cc(-c2ccc(C(F)(F)F)n(C)c2=O)c(F)cc1Cl (stereo not drawn) [Compound 1-182] | 5 | 5 | 5 | 5 | 5 | 1 | 5 | 5 | 5 | 5 | 1 | 5 | 5 | – | – | – | – | –
CCON=Cc1cc(-c2ccc(C(F)(F)F)n(C)c2=O)c(F)cc1Cl [Compound 1-187] | 5 | 5 | 5 | 5 | 5 | 1 | 5 | 5 | 5 | 5 | 2 | 5 | 5 | – | – | – | – | –
CCOC(=O)CON=Cc1cc(-c2ccc(C(F)(F)F)n(C)c2=O)c(F)cc1Cl [Compound 1-191] | 5 | 5 | 5 | 5 | 5 | 2 | 5 | 5 | 5 | 5 | 2 | 5 | 5 | – | – | – | – | –
C=CC(O)c1cc(-c2ccc(C(F)(F)F)n(C)c2=O)c(F)cc1Cl (stereo not drawn) [Compound 1-197] | 5 | 5 | 5 | 5 | 5 | 1 | 5 | 5 | 5 | 5 | 2 | 5 | 5 | – | – | – | – | –
CSCOc1cc(-c2ccc(C(F)(F)F)n(C)c2=O)c(F)cc1Cl [Compound 1-208] | 5 | 5 | 5 | 5 | 5 | 2 | 5 | 5 | 5 | 5 | 2 | 5 | 5 | – | – | – | – | –
C#CCN1C(=O)COc2cc(Cl)c(-c3ccc(C(F)(F)F)n(C)c3=O)cc21 [Compound 2-25] | – | – | 5 | 5 | 5 | 1 | 5 | 5 | 5 | 5 | 2 | 5 | 5 | 5 | 5 | 0 | 5 | 5
